Measured values from ChEMBL document CHEMBL1201862, “PubChem BioAssay data set” (2004).
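48-hour exposure; five concentrations; linearly interpolated endpoints. GI50: concentration for 50% inhibition of growth.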 Activity calls are given as the source filed them. Cut-off read from the data, not from the text of the source: active = GI50 up to about 1.1 µM and inactive = higher.

Legend:
Test in all cases: inhibition of tumour cell growth, NCI panel, 48 h
786-0 = system: 786-0
A498 = system: A498
A549 = system: A549
ACHN = system: ACHN
BT-549 = system: BT-549
CAKI-1 = system: CAKI-1
CCRF-CEM = system: CCRF-CEM
COLO 205 = system: COLO 205
DU-145 = system: DU-145
EKVX = system: EKVX
HCT-116 = system: HCT-116
HCT-15 = system: HCT-15
HL-60 = system: HL-60
HOP-62 = system: HOP-62
HT-29 = system: HT-29
Hs-578T = system: Hs-578T
IGROV-1 = system: IGROV-1
K562 = system: K562
KM12 = system: KM12
LOX IMVI = system: LOX IMVI
M14 = system: M14
MCF7 = system: MCF7
MDA-MB-231 = system: MDA-MB-231
MDA-MB-435 = system: MDA-MB-435
MDA-N = system: MDA-N
MOLT-4 = system: MOLT-4
Malme-3M = system: Malme-3M
NCI-H226 = system: NCI-H226
NCI-H23 = system: NCI-H23
NCI-H460 = system: NCI-H460
NCI-H522 = system: NCI-H522
NCI/ADR-RES = system: NCI/ADR-RES
OVCAR-3 = system: OVCAR-3
OVCAR-4 = system: OVCAR-4
OVCAR-5 = system: OVCAR-5
OVCAR-8 = system: OVCAR-8
PC-3 = system: PC-3
RPMI-8226 = system: RPMI-8226
RXF 393 = system: RXF 393
SF-268 = system: SF-268
SF-295 = system: SF-295
SF-539 = system: SF-539
SK-MEL-28 = system: SK-MEL-28
SK-MEL-2 = system: SK-MEL-2
SK-MEL-5 = system: SK-MEL-5
SK-OV-3 = system: SK-OV-3
SN12C = system: SN12C
SNB-19 = system: SNB-19
SNB-75 = system: SNB-75
SR = system: SR
SW-620 = system: SW-620
T47D = system: T47D
TK-10 = system: TK-10
U-251 = system: U-251
UACC-257 = system: UACC-257
UACC-62 = system: UACC-62
UO-31 = system: UO-31
HCC 2998 = system: HCC 2998
HOP-92 = system: HOP-92

Cn1c(=O)c2nc(CS(=O)(=O)Cc3nc4c(=O)n(C)c(=O)n(C)c4[nH]3)[nH]c2n(C)c1=O
GI50 (786-0): > 100 µM (inactive) | GI50 (A498): > 100 µM (inactive) | GI50 (A549): > 100 µM (inactive) | GI50 (ACHN): > 100 µM (inactive) | GI50 (BT-549): > 100 µM (inactive) | GI50 (CAKI-1): > 100 µM (inactive) | GI50 (CCRF-CEM): > 100 µM (inactive) | GI50 (COLO 205): > 100 µM (inactive) | GI50 (DU-145): > 100 µM (inactive) | GI50 (EKVX): > 100 µM (inactive) | GI50 (HCT-116): > 100 µM (inactive) | GI50 (HCT-15): > 100 µM | GI50 (HL-60): > 100 µM (inactive) | GI50 (HOP-62): > 100 µM (inactive) | GI50 (HT-29): > 100 µM (inactive) | GI50 (Hs-578T): > 100 µM (inactive) | GI50 (IGROV-1): > 100 µM (inactive) | GI50 (K562): > 100 µM (inactive) | GI50 (KM12): > 100 µM (inactive) | GI50 (LOX IMVI): > 100 µM (inactive) | GI50 (M14): > 100 µM (inactive) | GI50 (MCF7): 28.1 µM (inactive) | GI50 (MDA-MB-231): 40.6 µM (inactive) | GI50 (MDA-MB-435): > 100 µM (inactive) | GI50 (MDA-N): > 100 µM (inactive) | GI50 (MOLT-4): > 100 µM (inactive) | GI50 (Malme-3M): > 100 µM (inactive) | GI50 (NCI-H226): > 100 µM (inactive) | GI50 (NCI-H23): > 100 µM (inactive) | GI50 (NCI-H460): > 100 µM (inactive) | GI50 (NCI-H522): > 100 µM (inactive) | GI50 (NCI/ADR-RES): > 100 µM (inactive) | GI50 (OVCAR-3): > 100 µM (inactive) | GI50 (OVCAR-4): 43.1 µM (inactive) | GI50 (OVCAR-5): > 100 µM (inactive) | GI50 (OVCAR-8): > 100 µM (inactive) | GI50 (PC-3): > 100 µM (inactive) | GI50 (RPMI-8226): > 100 µM (inactive) | GI50 (RXF 393): > 100 µM (inactive) | GI50 (SF-268): > 100 µM (inactive) | GI50 (SF-295): > 100 µM (inactive) | GI50 (SF-539): > 100 µM (inactive) | GI50 (SK-MEL-28): > 100 µM (inactive) | GI50 (SK-MEL-2): > 100 µM (inactive) | GI50 (SK-MEL-5): > 100 µM (inactive) | GI50 (SK-OV-3): > 100 µM (inactive) | GI50 (SN12C): > 100 µM (inactive) | GI50 (SNB-19): > 100 µM (inactive) | GI50 (SNB-75): > 100 µM (inactive) | GI50 (SR): > 100 µM (inactive) | GI50 (SW-620): > 100 µM (inactive) | GI50 (T47D): > 100 µM (inactive) | GI50 (TK-10): > 100 µM (inactive) | GI50 (U-251): 33.2 µM (inactive) | GI50 (UACC-257): > 100 µM (inactive) | GI50 (UACC-62): > 100 µM (inactive) | GI50 (UO-31): > 100 µM (inactive)

O=c1c(C(c2ccccc2)c2c(O)oc3cc(O)ccc3c2=O)c(O)oc2cc(O)ccc12
GI50 (A498): > 100 µM (inactive) | GI50 (A549): > 100 µM (inactive) | GI50 (BT-549): > 100 µM (inactive) | GI50 (CAKI-1): > 100 µM (inactive) | GI50 (CCRF-CEM): > 100 µM (inactive) | GI50 (COLO 205): > 100 µM (inactive) | GI50 (DU-145): > 100 µM (inactive) | GI50 (EKVX): > 100 µM (inactive) | GI50 (HCC 2998): > 100 µM (inactive) | GI50 (HCT-116): > 100 µM (inactive) | GI50 (HCT-15): > 100 µM | GI50 (HL-60): > 100 µM (inactive) | GI50 (HOP-62): > 100 µM (inactive) | GI50 (HOP-92): > 100 µM (inactive) | GI50 (HT-29): > 100 µM (inactive) | GI50 (Hs-578T): > 100 µM (inactive) | GI50 (IGROV-1): > 100 µM (inactive) | GI50 (K562): > 100 µM (inactive) | GI50 (LOX IMVI): > 100 µM (inactive) | GI50 (M14): > 100 µM (inactive) | GI50 (MCF7): > 100 µM (inactive) | GI50 (MDA-MB-231): > 100 µM (inactive) | GI50 (MDA-MB-435): > 100 µM (inactive) | GI50 (MDA-N): > 100 µM (inactive) | GI50 (MOLT-4): > 100 µM (inactive) | GI50 (Malme-3M): > 100 µM (inactive) | GI50 (NCI-H226): > 100 µM (inactive) | GI50 (NCI-H23): > 100 µM (inactive) | GI50 (NCI-H460): > 100 µM (inactive) | GI50 (NCI/ADR-RES): > 100 µM (inactive) | GI50 (OVCAR-3): > 100 µM (inactive) | GI50 (OVCAR-4): > 100 µM (inactive) | GI50 (OVCAR-5): > 100 µM (inactive) | GI50 (OVCAR-8): > 100 µM (inactive) | GI50 (PC-3): > 100 µM (inactive) | GI50 (RXF 393): > 100 µM (inactive) | GI50 (SF-268): > 100 µM (inactive) | GI50 (SF-295): > 100 µM (inactive) | GI50 (SF-539): > 100 µM (inactive) | GI50 (SK-MEL-28): > 100 µM (inactive) | GI50 (SK-MEL-2): > 100 µM (inactive) | GI50 (SK-MEL-5): 52 µM (inactive) | GI50 (SK-OV-3): > 100 µM (inactive) | GI50 (SN12C): > 100 µM (inactive) | GI50 (SNB-75): > 100 µM (inactive) | GI50 (SR): > 100 µM (inactive) | GI50 (SW-620): > 100 µM (inactive) | GI50 (T47D): > 100 µM (inactive) | GI50 (TK-10): > 100 µM (inactive) | GI50 (U-251): > 100 µM (inactive) | GI50 (UACC-257): > 100 µM (inactive) | GI50 (UACC-62): > 100 µM (inactive) | GI50 (UO-31): > 100 µM (inactive)
